Test results published in patent US10004748B2, “Methods of treating PR-positive, luminal A breast cancer with PI3K inhibitor, pictilisib” (Genentech, Inc., priority 2014, dated 2018).
Where “and” joins values, the source holds several entries; their conditions need not be identical. Equal values may be shown once. Read-outs that look alike come from different tables or passages of the source.

Assays:
[1] = system: advanced or metastatic ER+ breast cancer (MBC); settings: for Median PFS / Events (PFS): all arms on fulvestrant; for HR (PFS): GDC-0941 vs placebo, both on fulvestrant
[2] = for Discontinued GDC-0941/placebo: Non-PD, patients (%): events unrelated to disease progression, all arms on fulvestrant
[3] = system: cytochrome P450 enzymes, including CYP2C8 and CYP3A4/5; assay: In vitro metabolism studies; assay type: in vitro ADME; settings: preliminary results
[4] = All luminal A/B typed patients (N 74/72)
[5] = PIK3CA Mutation Status Positive
[6] = PIK3CA Mutation Status Wild Type
[7] = PR+ subgroup of PAM50-typed patients (N 50/52)
[8] = 340 mg dose in combination with fulvestrant

SMILES: CS(=O)(=O)N1CCN(Cc2cc3nc(-c4cccc5[nH]ncc45)nc(N4CCOCC4)c3s2)CC1 [GDC-0941, 4-(2-(1H-indazol-4-yl)-6-((4-(methylsulfonyl)piperazin-1-yl)methyl)thieno[3,2-d]pyrimidin-4-yl)morpholine]
- Median PFS ([1]; All Patients (ITT)): 6.2 Months
- HR (PFS) [1, 4]: 0.81
- Events (PFS) [1, 4]: 33/39
- Median PFS [1, 4]: 6.18/5.09 months
- Median PFS ([1]; Baseline ECOG Score 0): 6.6 Months
- Median PFS ([1]; Baseline ECOG Score 1): 5.0 Months
- Median PFS ([1]; Bone Only Non-Measureable Disease at Baseline No): 5.0 Months
- Events (PFS) ([1]; LumA (N 46/52)): 15/27
- Events (PFS) ([1]; LumB (N 28/20)): 18/12
- Median PFS ([1]; LumB (N 28/20)): 3.7 months and 3.71/3.55 months
- HR (PFS) ([1]; LumB): 1.05
- Median PFS ([1]; Measurable Disease at Baseline (Derived) Yes): 5.0 Months
- Median PFS ([1]; Num of Previous Therapies in Metastatic Setting 0): 6.6 Months
- Median PFS ([1]; Num of Previous Therapies in Metastatic Setting 1): 6.2 Months
- Median PFS ([1]; Num of Previous Therapies in Metastatic Setting 3+): 3.6 Months
- Median PFS ([1]; PIK3CA Helical Domain Mutation Status Positive): 7.3 Months
- Median PFS ([1]; PIK3CA Helical Domain Mutation Status Wild Type): 6.2 Months
- Median PFS ([1]; PIK3CA Kinase Domain Mutation Status Positive): 6.2 Months
- Median PFS ([1]; PIK3CA Kinase Domain Mutation Status Wild Type): 6.6 Months
- Median PFS [1, 5]: 6.2 Months
- Median PFS [1, 6]: 5.8 Months
- Median PFS ([1]; PR Status Negative): 5 Months
- Median PFS ([1]; PR Status Negative, listed as GDC0941): 5.0 Months
- Median PFS ([1]; PR Status Positive (n=116)): 7.2 Months
- Median PFS ([1]; PR Status Unknown): 2.9 Months
- HR (PFS) [1, 7]: 0.47
- Events (PFS) [1, 7]: 19/32
- Median PFS [1, 7]: 7.16/3.68 months
- Events (PFS) ([1]; PR+, LumA (N 34/39)): 9/25
- HR (PFS) ([1]; PR+, LumA (n=73)): 0.31
- Events (PFS) ([1]; PR+, LumB (N 16/13)): 10/7
- Median PFS ([1]; PR+, LumB (N 16/13)): 3.91/3.32 months
- HR (PFS) ([1]; PR+, LumB): 0.92
- Events (PFS) ([1]; PR−, LumA (N 9/7)): 3/2
- HR (PFS) ([1]; PR−, LumA): 1.75
- Median PFS ([1]; Primary Resistance (Derived)): 5.0 Months
- Median PFS ([1]; Primary/Secondary Resistance Unknown): 1.7 Months
- Median PFS ([1]; Received Prior Adjuvant/Neo-Adjuvant Therapy No): 4.1 Months
- Median PFS ([1]; Received Prior Adjuvant/Neo-Adjuvant Therapy Yes): 7.2 Months
- Median PFS ([1]; Visceral Disease No): 8.2 Months
- Median PFS ([1]; Visceral Disease Yes): 4.1 Months
- Overall improvement of median PFS vs placebo group ([1]; patients positive for both the estrogen and progesterone receptor): over 15 weeks
- Patients who experienced a dose modification for an adverse event [2, 8]: 66%
- Rate of discontinuation for non-PD events [2, 8]: 31%
- Tolerability [2, 8]: acceptable tolerability profile
- Discontinued GDC-0941/placebo: Non-PD, patients (%) [2]: 28 (31%)
- Urinary tract infection, All Grades, patients (%) ([2]; human, in vivo): 9 (10%)
- AST increased, All Grades, patients (%) ([2]; n = 89, with fulvestrant): 11 (12%)
- AST increased, Grade ≥3, patients (%) ([2]; n = 89, with fulvestrant): 3 (3%)
- Abdominal pain, All Grades, patients (%) ([2]; n = 89, with fulvestrant): 9 (10%)
- Abdominal pain, Grade ≥3, patients (%) ([2]; n = 89, with fulvestrant): 2 (2%)
- Alopecia, All Grades, patients (%) ([2]; n = 89, with fulvestrant): 10 (11%)
- Arthralgia, All Grades, patients (%) ([2]; n = 89, with fulvestrant): 11 (12%)
- Constipation, All Grades, patients (%) ([2]; n = 89, with fulvestrant): 14 (16%)
- Cough, All Grades, patients (%) ([2]; n = 89, with fulvestrant): 14 (15%)
- Decreased appetite, All Grades, patients (%) ([2]; n = 89, with fulvestrant): 20 (23%)
- Decreased appetite, Grade ≥3, patients (%) ([2]; n = 89, with fulvestrant): 1 (1%)
- Diarrhea, All Grades, patients (%) ([2]; n = 89, with fulvestrant): 58 (65%)
- Diarrhea, Grade ≥3, patients (%) ([2]; n = 89, with fulvestrant): 5 (6%)
- Discontinued GDC-0941/placebo: Adverse Events, patients (%) ([2]; n = 89, with fulvestrant): 16 (18%)
- Discontinued fulvestrant for non-PD, patients (%) ([2]; n = 89, with fulvestrant): 15 (17%)
- Dry skin, All Grades, patients (%) ([2]; n = 89, with fulvestrant): 9 (10%)
- Dysgeusia, All Grades, patients (%) ([2]; n = 89, with fulvestrant): 35 (39%)
- Dyspepsia, All Grades, patients (%) ([2]; n = 89, with fulvestrant): 10 (11%)
- Dyspneoa, All Grades, patients (%) ([2]; n = 89, with fulvestrant): 10 (11%)
- Fatigue, All Grades, patients (%) ([2]; n = 89, with fulvestrant): 36 (40%)
- Fatigue, Grade ≥3, patients (%) ([2]; n = 89, with fulvestrant): 5 (6%)
- Headache, All Grades, patients (%) ([2]; n = 89, with fulvestrant): 12 (14%)
- Headache, Grade ≥3, patients (%) ([2]; n = 89, with fulvestrant): 1 (1%)
- Hot flush, All Grades, patients (%) ([2]; n = 89, with fulvestrant): 12 (13%)
- Hyperglycemia, All Grades, patients (%) ([2]; n = 89, with fulvestrant): 16 (18%)
- Hyperglycemia, Grade ≥3, patients (%) ([2]; n = 89, with fulvestrant): 4 (5%)
- Injection site pain, All Grades, patients (%) ([2]; n = 89, with fulvestrant): 10 (11%)
- Mucosal inflammation, All Grades, patients (%) ([2]; n = 89, with fulvestrant): 9 (10%)
- Muscle spasms, All Grades, patients (%) ([2]; n = 89, with fulvestrant): 10 (11%)
- Nausea, All Grades, patients (%) ([2]; n = 89, with fulvestrant): 48 (54%)
- Nausea, Grade ≥3, patients (%) ([2]; n = 89, with fulvestrant): 2 (2%)
- Pruritus, All Grades, patients (%) ([2]; n = 89, with fulvestrant): 11 (12%)
- Pruritus, Grade ≥3, patients (%) ([2]; n = 89, with fulvestrant): 1 (1%)
- Pyrexia, All Grades, patients (%) ([2]; n = 89, with fulvestrant): 12 (13%)
- Stomatitis, All Grades, patients (%) ([2]; n = 89, with fulvestrant): 16 (18%)
- Stomatitis, Grade ≥3, patients (%) ([2]; n = 89, with fulvestrant): 2 (2%)
- Vomiting, All Grades, patients (%) ([2]; n = 89, with fulvestrant): 24 (27%)
- Vomiting, Grade ≥3, patients (%) ([2]; n = 89, with fulvestrant): 2 (2%)
- in vitro metabolism [3]: partially metabolized by multiple Phase I cytochrome P450 enzymes, including CYP2C8 and CYP3A4/5

SMILES: C[C@]12CC[C@@H]3c4ccc(O)cc4C[C@@H](CCCCCCCCC[S+]([O-])CCCC(F)(F)C(F)(F)F)[C@H]3[C@@H]1CC[C@@H]2O (stereo partly drawn) [fulvestrant, (7α,17β)-7-{9-[(4,4,5,5,5-pentafluoropentyl)sulfinyl]nonyl}estra-1,3,5(10)-triene-3,17-diol, reference compound]
- Median PFS ([1]; All Patients (ITT)): 3.8 Months
- Median PFS ([1]; Luminal A subgroup (n=98)): 5.26 months
- Median PFS [1, 5]: 5.1 Months
- Median PFS [1, 6]: 3.6 Months
- Median PFS ([1]; PR Status Positive (n=116)): 3.7 Months
- Median PFS ([1]; PR-positive and Luminal A (n=73)): 5.7 months
- Response rate on the basis of local assessment ([1]; all patients): 5%
- Response rate ([1]; patients with PIK3CA-mutant tumors): 3%
- Response rate ([1]; patients without a detectable PIK3CA-mutant tumor): 5%
- Discontinued GDC-0941/placebo: Non-PD, patients (%) [2]: 10 (13%)
